Experimental data: paper PMC6511888, “Synthesis, Biological Evaluation, and Molecular Modeling Studies of New Thiadiazole Derivatives as Potent P2X7 Receptor Inhibitors” (Frontiers in Chemistry, 2019)

Columns and labels:
P2X7R = molecular target: T1, P2X7R (Mus musculus, UniProt Q9Z1M0); assay: Dye uptake assay (propidium iodide) in mouse peritoneal macrophages; format: cell-based; conditions: mean ± SD; for inhibition at 10 µM: percentage relative to the maximum uptake of propidium stimulated by 1 mM ATP only; for IC50: propidium uptake assay, mice peritoneal macrophages
T1 construct: plated for 24 h before dye uptake assays, whole-cell patch clamp experiments, and IL-1β release assays; endogenous in cells; host or cells: mouse (Swiss Webster) peritoneal macrophages
T1 sequence (Q9Z1M0 1-595): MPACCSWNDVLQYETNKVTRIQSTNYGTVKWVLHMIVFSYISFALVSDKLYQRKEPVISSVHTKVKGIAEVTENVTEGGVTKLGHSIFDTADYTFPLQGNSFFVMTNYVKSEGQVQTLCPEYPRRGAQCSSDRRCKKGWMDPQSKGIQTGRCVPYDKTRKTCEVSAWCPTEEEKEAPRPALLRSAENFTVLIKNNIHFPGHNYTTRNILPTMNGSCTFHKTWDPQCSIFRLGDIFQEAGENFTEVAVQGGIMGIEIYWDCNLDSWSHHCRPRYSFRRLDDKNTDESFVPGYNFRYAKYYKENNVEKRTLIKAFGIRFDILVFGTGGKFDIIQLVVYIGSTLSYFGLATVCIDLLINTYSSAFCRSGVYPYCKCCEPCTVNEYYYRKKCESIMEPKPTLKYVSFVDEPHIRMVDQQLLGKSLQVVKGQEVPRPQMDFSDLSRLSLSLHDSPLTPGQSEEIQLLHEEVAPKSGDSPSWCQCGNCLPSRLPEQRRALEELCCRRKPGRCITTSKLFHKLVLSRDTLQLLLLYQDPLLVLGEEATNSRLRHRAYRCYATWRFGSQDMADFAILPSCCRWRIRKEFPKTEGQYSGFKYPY
Method: Our protocols adhered to the Ethical Principles in Animal Experimentation adopted by the Brazilian College of Animal Experimentation and approved by the FIOCRUZ Research Ethics Committee (Faria et al., [2005]; number L039- 2016). Male mouse (Swiss Webster) peritoneal macrophages were collected from peritoneal cavity lavage and plated for 24 h before dye uptake assays, whole-cell patch clamp experiments, and IL-1β release assays.
HEK-293 cells transfected with hP2X7R and mouse peritoneal macrophages were plated at 2.5 × 10^6 or 5 × 10^5 cells/ml, respectively, in 96-well culture plates containing DMEM with 10% FBS and anti-biotics (50 U/ml penicillin and […] streptomycin) in a humidified 5% CO2 atmosphere at 37°C for 24 h (Faria et al., [2018]).
[…] In the last 5 min of ATP incubation, propidium iodide for macrophages (PI; 750 nM) or ethidium bromide (EB; 25 μM) for HEK-293 cells was added to all wells. PI dye was excited at a wavelength of 530 nm, and its fluorescence emission was read at a wavelength of 590 nm using an M5 plate reader (Molecular Devices). EB dye was excited at a wavelength of 530 nm and emitted at a wavelength of 620 nm.

[1] = LDH release assay (toxicity); format: cell-based, mouse; conditions: mouse peritoneal macrophages; for IC50 at 24 h: read-out: Macrophages IC50 (toxic effect); for CC50 at 24 h: mouse, peritoneal macrophages, toxicity measured for 24 h
Method: (§1) Mouse peritoneal macrophages (5 × 10^5 cells) and HEK-293 cells transfected with P2X7R (5 × 10^5 cells) were plated in a 96-well-plate for 24 h before the treatment. […] The supernatant collected in this assay was used to measure the presence of LDH in the media using a cytotoxicity detection kit (Sigma kit for LDH) according to the manufacturer's instructions (Faria et al., [2018]).

[2] = tested on: mouse peritoneal macrophages; assay: LDH release assay (toxicity); format: cell-based; conditions: 10 μM; relative to maximum LDH release caused by 0.05% Triton X-100; cell type not given; mean ± SD
Method: as §1

[3] = Stability in human liver microsomes; format: in vitro ADME; conditions: pH 7.4, read-out: LM stability human (CLint)
Method: Thiadiazole 9f stability was evaluated in liver microsomes from male mice and humans according to Faria et al. in 2018 (Faria et al., [2018]). Both solutions contained a final protein concentration of 0.5 mg/ml (0.1 M phosphate buffer) at pH 7.4. Microsomes were preincubated with 9f (1 μM) and DMSO ([…]) at 37°C before NADPH (1 mM) addition. A control for the reaction was a buffer containing 0.1 M phosphate at pH 7.4 in a final volume of 50 μl. Diazepam and verapamil were used as positive controls for mice and humans, respectively. Both types of microsomes were treated with 9f for 0, 5, 15, 30, and 45 min and the negative control [minus Nicotinamide adenine dinucleotide phosphate (NADPH)] for 45 min. To stop the reactions, methanol (50 μl) was added at the appropriate time points, and the samples were centrifuged (1,640 × g) for 20 min at 4°C to […] protein precipitation.
In vitro intrinsic clearance (CLint mic) for the metabolism of 9f in mouse and human liver microsomes was calculated using the equations below:
Half-life (t1/2) (minutes) = 0.693/k (1)
V(μL/mg) = volume of the incubation solution (μl)/protein in the incubation solution (mg) (2)
Intrinsic clearance (CLint) (μl/minutes/mg protein) = V × 0.693/t1/2 (3) according to the manufacturer's instructions.

[4] = Distribution coefficient (Log D) in octanol/PBS pH 7.4; format: physicochemical; conditions: average of three experiments, read-out: Log D7.4
Method: Octanol and Phosphate-buffered saline (PBS) solution at a ratio of 1:1 (v/v) at pH 7.4 was shaken mechanically for 24 h to reach presaturation. Crescent octanol volumes (100–400 μl) were added to PBS (396 μl) and thiadiazole 9f (25 mM) in a volume of 4 μl. This solution was shaken for 2 h and centrifuged (3,000 rpm) for 5 min, and the PBS layer was collected 1 h later. To measure the PBS layer absorbance, a 100-μl aliquot (396 μl of PBS containing 4 μl of 9f + 400 μl of acetonitrile) was partitioned with acetonitrile (100 μl; Faria et al., [2018]).

Row | SMILES | inhibition at 10 µM (P2X7R) | IC50 (P2X7R) | microsomal CLint at 1 μM [3] | logD [4] | melting point | IC50 at 24 h [1] | CC50 at 24 h [1] | % LDH release [2]
1 | N#Cc1cnn(-c2nnc(-c3ccccc3Cl)s2)c1N [Compound 9b] | 30 ± 0.6% | 0.111 ± 0.009 µM | 26.4 µL/min/mg | -1.2 ± 0.1 | 250 to 251 °C | 2270 ± 86 µM | 2270 µM | 15.8 ± 1.3%
2 | N#Cc1cnn(-c2nnc(-c3ccc(F)cc3)s2)c1N [Compound 9c] | 28.2 ± 0.7% | 0.109 ± 0.011 µM | 18.6 µL/min/mg | -0.9 ± 0.1 | 262 to 263 °C | 3900 ± 77 µM | 6080 µM | 10 ± 0.7%

More lines, main results first:

Row | inhibition at 10 µM (P2X7R) | IC50 (P2X7R) | microsomal CLint at 1 μM [3] | logD [4] | melting point | SMILES | IC50 at 24 h [1] | CC50 at 24 h [1] | % LDH release [2]
3 | 15.7 ± 0.6% | 0.016 ± 0.002 µM | 39.5 µL/min/mg | -3.7 ± 0.2 | 190 to 191 °C | CCOC(=O)c1cnn(-c2nnc(-c3ccccc3Cl)s2)c1N [Compound 9f] | 6080 ± 102 µM | 3900 µM | 42.5 ± 0.4%
4 | 29.2 ± 0.3% | 0.122 ± 0.013 µM | 46.7 µL/min/mg | -4.2 ± 0.4 | 174 °C | Cc1cc(C)n(-c2nnc(-c3ccc(F)cc3)s2)n1 [Compound 11c, 2-(3,5-dimethyl-1H-pyrazol-1-yl)-5-(4-fluorophenyl)-1,3,4-thiadiazole] | 3240 ± 201 µM | 3240 µM | 24 ± 1.7%
5 |  | 0.108 ± 0.016 µM |  |  |  | COc1ccc(CC(=O)NC(NC(=NC#N)Nc2cccc3ncccc23)C(C)(C)C)cc1OC (stereo not shown) [Compound A740003, N-(1-{[(cyanoimino)(5-quinolinylamino)methyl]amino}-2,2-dimethylpropyl)-2-(3,4-dimethoxyphenyl)acetamide] | 325 ± 6 µM |  | 
